Test results taken from patent US7318917B2, “Rapid assays for neurotransmitter transporters” (Vanderbilt University, priority 2002, dated 2008).

Target: DAT (Homo sapiens, UniProt Q01959)
Experiment: ASP+ uptake assay on FLEXstation, DAT-transfected HEK-293 cells
Assay type: cell-based
Parameters: expressed in transfected cells
Details: FIG. 10B
Protocol: Medium for the transfected lines was supplemented with G418 (250 μg/ml). Trypsin, glutamine, penicillin, streptomycin, G418, and phosphate-free DMEM were purchased from Life Technologies, Inc. or obtained from the Vanderbilt Media Core. For all transport assays, cells were plated on poly-D-lysine (0.1 mg/ml)-coated (0.1 mg/ml)-coated 96-well plates. HEK cells were plated at 12,500 cells per well in 96 well plates, HEK-DAT cells were plated at 15,000 cells per well, HEK-NET cells were plated at 20,000 per well, and HEK-SERT cells were plated at 20,000 per well in a volume of 200 uL. HEK, HEK-DAT, and HEK-SERT cells were grown for 48 hours and HEK-NET cells were grown for 72 hours to a confluency of ˜90%.
ASP^+ was obtained from Molecular Probes, Inc. and dissolved in KRH buffer to indicated concentrations. Trypan Blue was obtained from Sigma as a 0.4% solution and diluted to a final concentration of 30 uM in KRH buffer.
To limit the time delay between the addition of ASP^+ and the measurement of accumulation of ASP^+ during the kinetic assays, plates were divided in half and assayed one half at a time. At assay, the medium was removed from wells in the first 6 columns by aspiration, and the cells were incubated with Trypan Blue in KRH buffer for 20 minutes at 37° C.in room air. Then, medium was removed from the wells in the last 6 columns and replaced with Trypan Blue in KRH buffer.

Chain of DAT (Q01959 whole entry): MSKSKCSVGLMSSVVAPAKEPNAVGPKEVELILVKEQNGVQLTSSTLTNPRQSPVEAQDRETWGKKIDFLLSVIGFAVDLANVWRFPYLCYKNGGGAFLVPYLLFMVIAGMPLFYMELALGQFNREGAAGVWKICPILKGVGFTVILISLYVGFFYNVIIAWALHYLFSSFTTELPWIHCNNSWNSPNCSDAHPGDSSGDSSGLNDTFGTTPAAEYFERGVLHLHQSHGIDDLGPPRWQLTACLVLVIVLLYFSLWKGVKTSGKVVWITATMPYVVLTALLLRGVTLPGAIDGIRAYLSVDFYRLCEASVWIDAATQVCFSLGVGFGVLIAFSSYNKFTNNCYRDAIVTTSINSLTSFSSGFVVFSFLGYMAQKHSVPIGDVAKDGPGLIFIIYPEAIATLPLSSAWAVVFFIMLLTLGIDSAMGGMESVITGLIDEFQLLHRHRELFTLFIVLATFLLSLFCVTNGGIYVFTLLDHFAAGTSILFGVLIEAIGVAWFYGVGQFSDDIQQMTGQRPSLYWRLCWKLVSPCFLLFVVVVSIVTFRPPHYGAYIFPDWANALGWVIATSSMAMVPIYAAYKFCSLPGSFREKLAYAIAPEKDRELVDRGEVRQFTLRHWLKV

## CN(C)c1ccc(C=Cc2cc[n+](C)cc2)cc1 [ASP^+, 4-(4-dimethylaminostyrl)-N-methylpyridinium]
  concentration-response of ASP+ accumulation, DAT: concentration-dependent accumulation
